Assay results as given in patent US8975289B2, “Benzyl aralkyl ether compounds, method for preparing same, intermediate compounds, use of said compounds, method for treatment and/or prevention, pharmaceutical composition and medicament containing same” (priority 2009, dated 2015).
In brackets after ≈: the same amount, converted by molar mass.

Tests used:
Type in all cases: cell-based
[1] = tested on: Staphylococcus epidermidis 12228; assay: Broth microdilution MIC (M7-A6), bacteria, strain XVII; details: strain XVII 12228, 24 hours incubation
Description: (§1) For the experiments of the present invention (i) yeast strains obtained from clinical isolates and laboratory isolates, and (ii) bacterial strains obtained from laboratory isolates were used, as described in Table 5 as follows. […] The compounds were dissolved in dimethyl sulfoxide (DMSO) to match the final concentration of the compound equal to or less than 1%. The methodology used to test the sensitivity of the agent was broth microdilution according to the method described in Standard M7-A6 (Methodology of sensitivity tests to antimicrobial agents by dilution for bacteria with aerobic growth-6th Edition: NCCLS, volume 23, No. 2, USA, 2003), as follows. […] Then the suspensions were diluted in Mueller Hinton culture medium to a final concentration of 5×10^4CFU/mL. The diluted suspensions were inoculated in 0.1 mL in duplicates in […] plates. The procedure was performed in a laminar flow. […] Incubation of fungi with these compounds was carried out for 24 hours at a temperature of 30 to 35° C. […] We have agreed in this experiment that the turbid medium is the result of microbial growth and the presence of deposit and a clear medium represents the absence of microbial growth. The minimum inhibitory concentration (MIC) was defined as the lowest tested drug concentration that prevents any degree of bacterial growth.

[2] = tested on: Staphylococcus aureus 6538; assay: Broth microdilution MIC (M7-A6), bacteria, strain XVIII; details: strain XVIII 6538, 24 hours incubation
Description: as §1

Candida glabrata 2001 = assay: Broth microdilution MIC (M27-A2), yeast, strain XVI; details: strain XVI 2001, 48 hours incubation
Description: (§2) For the experiments of the present invention (i) yeast strains obtained from clinical isolates and laboratory isolates, and (ii) bacterial strains obtained from laboratory isolates were used, as described in Table 5 as follows. The yeast strains were grown in culture medium Sabouraud Dextrose Agar maintained at a temperature of 35° C. for 48 hours. […] The compounds were dissolved in dimethyl sulfoxide (DMSO) to match the final concentration of the compound equal to or less than 1%. The methodology used to test the sensitivity of the agent was broth microdilution according to the method described in Standard M27-A2 (Reference method for broth dilution tests to determine the sensitivity of yeasts to antifungal therapy-second edition, NCCLS, volume 22 number 15, USA, 2002) as follows. […] Then the suspensions were diluted in culture medium RPMI-1640 (buffered with MOPS 0.165 mol/l) at a final concentration of 50 to 2500 CFU/mL. The diluted suspensions were inoculated in duplicate in a 96-well plate. The procedure was performed in a laminar flow. […] The incubation of fungi with these compounds was carried out for 48 hours at temperature of 30 to 35° C. […] We have agreed in this experiment that the turbid medium is the result of microbial growth and the presence of deposit and a clear medium represents the absence of microbial growth. The minimum inhibitory concentration (MIC) was defined as the lowest tested drug concentration that prevents any degree of […] growth.

[3] = tested on: Candida parapsilosis 22019; assay: Broth microdilution MIC (M27-A2), yeast, strain XV; details: strain XV 22019, 48 hours incubation
Description: as §2

[4] = tested on: three different species of yeast and two distinct species of bacteria; assay: Growth inhibition of the yeast and bacteria strains of Table 5, summary
Description: For the experiments of the present invention (i) yeast strains obtained from clinical isolates and laboratory isolates, and (ii) bacterial strains obtained from laboratory isolates were used, as described in Table 5 as follows.
The yeast strains were grown in culture medium Sabouraud Dextrose Agar maintained at a temperature of 35° C. for 48 hours.
The bacterial strains were grown in culture medium Triptic Soy Agar at 35° C. for two to six hours (or until the turbidity of a McFarland standard solution equal to 0.5). 5.2 Mounting of Preparations and Test For the experiments, compound 1-[2-(2,4-dichlorophenyl)-2-{[4-(trifluoromethyl)benzyl]oxy}ethyl]-1H-imidazole (BL-123) in the form of its nitrate salt, 1-[2-(2,4-dichlorophenyl)]-2-({4-[(2-phenyl)-2H-tetrazole]benzyl}oxy)ethyl]-1H-imidazole (BL-137), and miconazole nitrate were used. The compounds were dissolved in dimethyl sulfoxide (DMSO) to match the final concentration of the compound equal to or less than 1%.
The methodology used to test the sensitivity of the agent was broth microdilution according to the method described in Standard M27-A2 (Reference method for broth dilution tests to determine the sensitivity of yeasts to antifungal therapy-second edition, NCCLS, volume 22 number 15, USA, 2002) as follows.
The yeast strains were grown according to item 5.1.a to obtain a culture containing between 1×10^6 and 5×10^6 CFU/mL. […]

Candida albicans 10231 = assay: Broth microdilution MIC (M27-A2), yeast, strain XIV; details: strain XIV 10231, 48 hours incubation
Description: as §2

## Clc1ccc(C(Cn2ccnc2)OCc2ccc(-c3nnn(-c4ccccc4)n3)cc2)c(Cl)c1 (stereo not drawn) [BL-137]
[1]
  MIC: 128.0 µg/mL (≈ 260 µM)
[2]
  MIC: 128.0 µg/mL (≈ 260 µM)
Candida glabrata 2001
  MIC: 512.0 µg/mL (≈ 1040 µM)
[3]
  MIC: 512.0 µg/mL (≈ 1040 µM)
[4]
  Inhibitory effect on growth (in words): exert an inhibitory effect on the growth
Candida albicans 10231
  MIC: 512.0 µg/mL (≈ 1040 µM)
